What was measured:
[1] = test system: Holstein cows having somatic cell counts of 300,000/mL to 1,000,000/mL; test: Analysis of the DHI indicators of milk after subcutaneous injection of melatonin; type: in vivo
Excerpt: (1) According to the monthly DHI test reports from the dairy farm, Holstein cows having somatic cell counts of 300,000/mL to 1,000,000/mL are selected to be fed separately, and are ensured to have no significant difference in physical health. Season groups: spring n=90, summer n=74, autumn n=83, winter n=81 (number of cows). Age groups: 2-year-old n=23; 3-year-old n=80; 4-year-old n=66; 5-year-old n=56; 6-year-old n=27; 7-year-old n=19 (number of cows). Lactation period groups: peak-lactation n=15, mid-lactation n=38, end-lactation n=59 (number of cows) (initial-lactation: days 1-15 after calving; peak-lactation: days 16-100 after calving; mid-lactation: days 101-200 after calving; end-lactation: day 201 after calving to weaning).
(2) The dairy cows having high somatic cell counts are injected with 2 mL melatonin solution every day for 4 consecutive days in each month. 15 days after the injection, fresh milk was collected and stored in 50 mL centrifuge tubes, and was tested for the changes in somatic cell counts. The cows were fed with total mixed ration, and were fed three times at 06:00, 12:00, and 18:00 respectively. Then, the cows entered the sports ground to move freely, drink water and rest.
(3) The sampling bottles were numbered and added with 2-3 drops of potassium dichromate saturated solution, and were used for collecting the milk samples from the milk by the first milking of the cows. The milk sample for each cow was in a volume of 40 mL and placed in a centrifuge tube. After sampling, all the remaining milk was drained from the tubes which were cleaned to avoid contamination between the samples. The samples were stored at 2-7° C. The instrument for measuring the DHI indicators is Milkscan FT+&FC automatic milk compositional analyzer and somatic cell counter. The measurement was carried out in the National Laboratory for Preparation of Standard Materials of DHI.

[2] = test system: cows; test: Blood indicators of cows after injection of melatonin; conditions: in vivo
[3] = 2-year-old cows, after injection
[4] = 3-year-old cows, after injection
[5] = 4-year-old cows, after injection
[6] = 5-year-old cows, after injection
[7] = 6-year-old cows, after injection
[8] = 7-year-old cows, after injection
[9] = peak-lactation, after injection

For `COc1ccc2[nH]cc(CCNC(C)=O)c2c1` [melatonin], the dry matter contents [1, 3] was 13.87%±0.27, the fat contents [1, 3] was 4.54%±0.26 and the lactose contents [1, 3] was 5.19%±0.03. The milk production [1, 3] was 32.12 ± 1.63 kg/day, the protein contents [1, 3] was 3.41%±0.09 and the somatic cell scores [1, 3] was 3.87±0.33. The urea nitrogen contents [1, 3] was 13.90 ± 0.80 mg/dL, the dry matter contents [1, 4] was 13.57%±0.13 and the fat contents [1, 4] was 4.36%±0.11. The lactose contents [1, 4] was 5.03%±0.02, the milk production [1, 4] was 32.11 ± 0.96 kg/day and the protein contents [1, 4] was 3.44%±0.04. The somatic cell scores [1, 4] was 4.31±0.18, the urea nitrogen contents [1, 4] was 13.58 ± 0.46 mg/dL and the dry matter contents [1, 5] was 14.18%±0.15. For the same compound, the fat contents [1, 5] was 4.69%±0.13, the lactose contents [1, 5] was 4.94%±0.03 and the milk production [1, 5] was 30.03 ± 1.22 kg/day. The protein contents [1, 5] was 3.66%±0.06, the somatic cell scores [1, 5] was 4.68±0.18 and the urea nitrogen contents [1, 5] was 13.32 ± 0.49 mg/dL. For the same compound, the dry matter contents [1, 6] was 13.87%±0.18, the fat contents [1, 6] was 4.62%±0.16 and the lactose contents [1, 6] was 4.86%±0.05. For the same compound, the milk production [1, 6] was 33.56 ± 1.52 kg/day, the protein contents [1, 6] was 3.55%±0.07 and the somatic cell scores [1, 6] was 4.04±0.19. The urea nitrogen contents [1, 6] was 14.09 ± 0.59 mg/dL, the dry matter contents [1, 7] was 14.13%±0.24 and the fat contents [1, 7] was 5.27%±0.21. For the same compound, the lactose contents [1, 7] was 4.91%±0.06, the milk production [1, 7] was 35.19 ± 2.67 kg/day and the protein contents [1, 7] was 3.38%±0.07. The somatic cell scores [1, 7] was 5.19±0.27, the urea nitrogen contents [1, 7] was 15.79 ± 0.94 mg/dL and the dry matter contents [1, 8] was 13.48%±0.32. For the same compound, the fat contents [1, 8] was 4.66%±0.37, the lactose contents [1, 8] was 4.93%±0.06 and the milk production [1, 8] was 30.34 ± 2.08 kg/day. The protein contents [1, 8] was 3.32%±0.07, the somatic cell scores [1, 8] was 5.03±0.29 and the urea nitrogen contents [1, 8] was 15.11 ± 1.34 mg/dL. For the same compound, the dry matter contents ([1]; autumn, after injection) was 14.10%±0.14, the fat contents ([1]; autumn, after injection) was 4.68%±0.13 and the lactose contents ([1]; autumn, after injection) was 5.07%±0.04. For the same compound, the milk production ([1]; autumn, after injection) was 32.07 ± 1.05 kg/day, the protein contents ([1]; autumn, after injection) was 3.64%±0.05 and the urea nitrogen contents ([1]; autumn, after injection) was 11.72 ± 0.36 mg/dL. The somatic cell scores ([1]; autumn, after injection (second value of before VS after)) was 4.55±0.16, the dry matter contents ([1]; end-lactation, after injection) was 13.47%±0.13 and the fat contents ([1]; end-lactation, after injection) was 4.18%±0.12. The milk production ([1]; end-lactation, after injection) was 31.25 ± 1.29 kg/day, the protein contents ([1]; end-lactation, after injection) was 3.40%±0.04 and the somatic cell scores ([1]; end-lactation, after injection) was 1.99±0.15. The urea nitrogen contents ([1]; end-lactation, after injection) was 12.04 ± 0.38 mg/dL, the dry matter contents ([1]; mid-lactation, after injection) was 13.56%±0.14 and the fat contents ([1]; mid-lactation, after injection) was 4.22%±0.11. The lactose contents ([1]; mid-lactation, after injection) was 5.19%±0.02, the milk production ([1]; mid-lactation, after injection) was 39.08 ± 1.79 kg/day and the protein contents ([1]; mid-lactation, after injection) was 3.45%±0.05. For the same compound, the somatic cell scores ([1]; mid-lactation, after injection) was 2.00±0.17, the urea nitrogen contents ([1]; mid-lactation, after injection) was 12.11 ± 0.54 mg/dL and the dry matter contents [1, 9] was 13.17%±0.29. The fat contents [1, 9] was 3.87%±0.26, the milk production [1, 9] was 38.80 ± 2.06 kg/day and the protein contents [1, 9] was 3.35%±0.06. The somatic cell scores [1, 9] was 2.04±0.24, the urea nitrogen contents [1, 9] was 11.12 ± 0.64 mg/dL and the dry matter contents ([1]; spring, after injection) was 13.92%±0.15. For the same compound, the fat contents ([1]; spring, after injection) was 4.78%±0.14, the lactose contents ([1]; spring, after injection) was 4.94%±0.02 and the milk production ([1]; spring, after injection) was 32.11 ± 1.15 kg/day. The protein contents ([1]; spring, after injection) was 3.49%±0.04, the urea nitrogen contents ([1]; spring, after injection) was 14.35 ± 0.45 mg/dL and the somatic cell scores ([1]; spring, after injection (second value of before VS after), 2 mL/day s.c., 4 days, milk 15 days after) was 4.89±0.15. The dry matter contents ([1]; summer, after injection) was 13.42%±0.13, the fat contents ([1]; summer, after injection) was 4.20%±0.12 and the lactose contents ([1]; summer, after injection) was 5.06%±0.02. The milk production ([1]; summer, after injection) was 32.69 ± 1.00 kg/day, the protein contents ([1]; summer, after injection) was 3.45%±0.04 and the urea nitrogen contents ([1]; summer, after injection) was 14.19 ± 0.50 mg/dL. For the same compound, the somatic cell scores ([1]; summer, after injection (second value of before VS after)) was 4.09±0.20, the “somatic cell score reduced by” value ([1]; whole year, n=328, p<0.01) was 63.54% and the “fat content of milk reduced by” value ([1]; whole year, n=328, p<0.05) was 11.31%. The “lactose content increased to” value ([1]; whole year, n=328, p<0.05) was 4.74%, the “protein content of milk increased by” value ([1]; whole year, n=328, p<0.05) was 3.79% and the “urea nitrogen content of milk reduced by” value ([1]; whole year, n=328, p<0.05) was 11.08%. The dry matter contents ([1]; winter, after injection) was 13.65%±0.12, the fat contents ([1]; winter, after injection) was 4.75%±0.11 and the lactose contents ([1]; winter, after injection) was 4.84%±0.04. The milk production ([1]; winter, after injection) was 31.82 ± 1.17 kg/day, the protein contents ([1]; winter, after injection) was 3.43%±0.05 and the urea nitrogen contents ([1]; winter, after injection) was 15.94 ± 0.51 mg/dL. The somatic cell scores ([1]; winter, after injection (second value of before VS after)) was 4.34±0.17, the “concentration of alanine aminotransferase” value [2] was “increase” and the concentration of albumin [2] was “increase”. For the same compound, the concentration of cortisol [2] was “reduce”, the “concentration of serum lactate dehydrogenase” value [2] was “increase” and the number of lymphocytes [2] was “reduce”. For the same compound, the number of neutrophils [2] was “reduce” and the “number of white blood cells” value [2] was “reduce”.

Reference: US11896580B2, “Composition for improving milk quality and preparation method and application thereof” (CHINA AGRICULTURAL UNIVERSITY, priority 2020, dated 2024)
